Converted amounts (≈) assume the structure as drawn. Some results are limits rather than exact numbers.

The solubility is how much of the substance goes into solution per volume. As a reminder, the bioavailability is the share of a dose that reaches the circulation, judged against a reference dose that is usually intravenous. High values mean much systemic uptake, low ones little systemic uptake. As a reminder, the half-life is the time needed for the level to fall by half in the phase considered.

System in one data set: not listed separately
The data set can be described thus: Metabolic stability in rat liver microsomes assessed as compound remaining after 30 mins. Format: ADME, Microsome. Particulars: read-out: Stability.
For `CN[C@@H](CC(C)C)C(=O)N[C@H]1CC[C@@H]2CN(c3cccc(C(F)(F)F)c3)C[C@@H]21`, the remaining at 0.5 h came to 81%.
Consider `CN[C@@H](CC(C)C)C(=O)N[C@H]1CC[C@@H]2CN(c3ccc(OC(F)(F)F)cc3)C[C@@H]21`, for which the remaining at 0.5 h was 66%.
On the same count and under the same terms, the same measure for `CN[C@@H](CC(C)C)C(=O)N[C@@H]1CC[C@H]2CN(Cc3cccc(C(F)(F)F)c3)C[C@H]21`: 60.7%.
For `CC(C)C[C@H](NS(C)(=O)=O)C(=O)N[C@@H]1CC[C@H]2CN(Cc3cccc(C(F)(F)F)c3)C[C@H]21`, the remaining at 0.5 h stood at 42.1%.
Still for that read-out and setting: as for `CC(C)C[C@H](N)C(=O)N[C@@H]1CC[C@H]2CN(S(=O)(=O)c3cccc(C(F)(F)F)c3)C[C@H]21`, the figure is 10.3%.

The target of another data set is Voltage-dependent N-type calcium channel subunit alpha-1B (Homo sapiens, UniProt Q00975). The data set can be described thus: Inhibition of N-type Cav2.2 channel (unknown origin) by FLIPR assay. Particulars: read-out: IC50.
Sequence of Voltage-dependent N-type calcium channel subunit alpha-1B (Q00975 whole entry): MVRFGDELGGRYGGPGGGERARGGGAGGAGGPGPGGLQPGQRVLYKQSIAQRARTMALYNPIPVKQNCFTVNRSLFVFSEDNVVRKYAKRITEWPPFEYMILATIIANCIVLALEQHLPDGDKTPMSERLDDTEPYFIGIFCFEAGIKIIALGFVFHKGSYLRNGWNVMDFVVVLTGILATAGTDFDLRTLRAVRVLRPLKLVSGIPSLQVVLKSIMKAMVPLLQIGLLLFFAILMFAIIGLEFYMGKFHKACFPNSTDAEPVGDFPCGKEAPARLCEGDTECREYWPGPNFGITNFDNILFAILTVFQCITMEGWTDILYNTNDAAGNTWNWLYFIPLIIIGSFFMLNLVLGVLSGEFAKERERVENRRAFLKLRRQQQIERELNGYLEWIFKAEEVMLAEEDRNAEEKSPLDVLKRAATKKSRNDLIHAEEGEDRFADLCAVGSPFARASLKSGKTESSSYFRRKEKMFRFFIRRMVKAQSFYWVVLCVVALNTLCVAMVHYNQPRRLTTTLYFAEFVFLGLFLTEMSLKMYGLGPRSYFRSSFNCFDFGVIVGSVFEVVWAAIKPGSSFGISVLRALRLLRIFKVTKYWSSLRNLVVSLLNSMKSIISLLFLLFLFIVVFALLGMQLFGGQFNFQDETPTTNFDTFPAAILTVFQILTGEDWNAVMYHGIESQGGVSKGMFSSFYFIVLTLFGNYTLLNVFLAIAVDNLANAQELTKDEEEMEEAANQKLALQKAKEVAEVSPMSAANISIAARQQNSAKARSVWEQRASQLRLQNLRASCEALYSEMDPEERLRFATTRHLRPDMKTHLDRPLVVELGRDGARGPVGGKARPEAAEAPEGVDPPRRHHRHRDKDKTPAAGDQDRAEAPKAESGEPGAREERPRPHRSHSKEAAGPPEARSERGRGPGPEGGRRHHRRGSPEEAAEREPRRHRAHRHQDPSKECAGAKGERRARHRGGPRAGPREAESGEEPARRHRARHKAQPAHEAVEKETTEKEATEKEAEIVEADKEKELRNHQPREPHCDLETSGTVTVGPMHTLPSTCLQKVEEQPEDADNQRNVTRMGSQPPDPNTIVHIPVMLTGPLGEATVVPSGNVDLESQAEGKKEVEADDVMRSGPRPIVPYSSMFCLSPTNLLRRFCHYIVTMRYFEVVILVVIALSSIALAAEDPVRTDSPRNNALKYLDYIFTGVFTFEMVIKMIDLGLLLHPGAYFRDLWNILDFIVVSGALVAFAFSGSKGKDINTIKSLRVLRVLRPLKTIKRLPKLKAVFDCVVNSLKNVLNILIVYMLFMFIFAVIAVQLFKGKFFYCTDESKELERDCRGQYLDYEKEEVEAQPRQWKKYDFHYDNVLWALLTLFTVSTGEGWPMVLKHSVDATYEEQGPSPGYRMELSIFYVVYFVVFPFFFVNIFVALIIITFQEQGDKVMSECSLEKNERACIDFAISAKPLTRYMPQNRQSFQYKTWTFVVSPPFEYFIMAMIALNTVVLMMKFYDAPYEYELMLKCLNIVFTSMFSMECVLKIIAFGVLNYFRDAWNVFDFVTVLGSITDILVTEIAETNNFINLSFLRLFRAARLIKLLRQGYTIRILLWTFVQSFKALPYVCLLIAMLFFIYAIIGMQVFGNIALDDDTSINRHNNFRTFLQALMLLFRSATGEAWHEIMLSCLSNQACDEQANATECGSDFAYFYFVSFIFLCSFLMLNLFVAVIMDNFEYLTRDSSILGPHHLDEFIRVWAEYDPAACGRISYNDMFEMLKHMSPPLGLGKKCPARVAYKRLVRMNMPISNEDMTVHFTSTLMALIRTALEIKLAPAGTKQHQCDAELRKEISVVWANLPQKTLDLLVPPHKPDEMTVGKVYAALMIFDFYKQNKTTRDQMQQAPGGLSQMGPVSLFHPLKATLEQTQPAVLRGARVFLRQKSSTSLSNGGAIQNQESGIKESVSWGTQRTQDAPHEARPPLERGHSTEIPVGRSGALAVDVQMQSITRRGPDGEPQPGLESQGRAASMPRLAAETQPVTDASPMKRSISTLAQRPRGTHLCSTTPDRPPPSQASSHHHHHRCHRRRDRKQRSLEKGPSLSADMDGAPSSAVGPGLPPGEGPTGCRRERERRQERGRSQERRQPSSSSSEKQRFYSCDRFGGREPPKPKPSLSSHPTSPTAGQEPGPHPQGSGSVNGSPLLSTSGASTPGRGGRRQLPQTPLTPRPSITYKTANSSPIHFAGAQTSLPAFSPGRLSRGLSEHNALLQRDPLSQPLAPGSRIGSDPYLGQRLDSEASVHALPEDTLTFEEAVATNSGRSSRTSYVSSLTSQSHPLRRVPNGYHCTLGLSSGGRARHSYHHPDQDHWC
For `CN[C@@H](CC(C)C)C(=O)N[C@H]1CC[C@@H]2CN(c3ccc(OC(F)(F)F)cc3)C[C@@H]21`, the IC50 is 5150 nM.
Still for that read-out and setting: as for `CN[C@@H](CC(C)C)C(=O)N[C@@H]1CC[C@H]2CN(Cc3cccc(C(F)(F)F)c3)C[C@H]21`, the figure is 1890 nM.
Same read-out and setting: as for `CC(C)C[C@H](NS(C)(=O)=O)C(=O)N[C@@H]1CC[C@H]2CN(Cc3cccc(C(F)(F)F)c3)C[C@H]21`, the figure is 2840 nM; as for `CC(C)C[C@H](N)C(=O)N[C@@H]1CC[C@H]2CN(S(=O)(=O)c3cccc(C(F)(F)F)c3)C[C@H]21`, 1060 nM.

Staying with this data set, now noted: read-out: pIC50 (converted).
Regarding `CN[C@@H](CC(C)C)C(=O)N[C@H]1CC[C@@H]2CN(c3cccc(C(F)(F)F)c3)C[C@@H]21`, the IC50 was 1170 nM.

System in a further data set: not listed separately
The experiment in a line: Solubility of the compound by chemiluminescent nitrogen detection method.
Details: not given
`CN[C@@H](CC(C)C)C(=O)N[C@H]1CC[C@@H]2CN(c3cccc(C(F)(F)F)c3)C[C@@H]21` displayed a solubility of 56 µM (≈ 22.3 µg/mL).
Compound `CN[C@@H](CC(C)C)C(=O)N[C@H]1CC[C@@H]2CN(c3ccc(OC(F)(F)F)cc3)C[C@@H]21` displayed a solubility of 31 µM (≈ 12.8 µg/mL).
Regarding `CN[C@@H](CC(C)C)C(=O)N[C@@H]1CC[C@H]2CN(Cc3cccc(C(F)(F)F)c3)C[C@H]21`, the solubility worked out at 67 µM (≈ 27.6 µg/mL).
The same measure, in the same setting: as for `CC(C)C[C@H](NS(C)(=O)=O)C(=O)N[C@@H]1CC[C@H]2CN(Cc3cccc(C(F)(F)F)c3)C[C@H]21`, the figure is 80 µM (≈ 38 µg/mL); as for `CC(C)C[C@H](N)C(=O)N[C@@H]1CC[C@H]2CN(S(=O)(=O)c3cccc(C(F)(F)F)c3)C[C@H]21`, 44 µM (≈ 19.7 µg/mL).

System in a further data set: not listed separately
The experiment in a line: Oral bioavailability in rat at 30 umol/kg. Format: ADME, organism-based. Particulars: in vivo, 30 umol/kg.
Compound `CC(C)C[C@H](N)C(=O)N[C@@H]1CC[C@H]2CN(S(=O)(=O)c3cccc(C(F)(F)F)c3)C[C@H]21` showed a bioavailability of 0%.

System in another data set: not listed separately
The experiment in a line: Metabolic stability in human liver microsomes assessed as compound remaining after 30 mins. The data set is classed as ADME, Microsome. Particulars: read-out: Stability.
Turning to `CN[C@@H](CC(C)C)C(=O)N[C@H]1CC[C@@H]2CN(c3cccc(C(F)(F)F)c3)C[C@@H]21`, the remaining at 0.5 h is 73%.
The same measure, in the same setting: the same measure for `CN[C@@H](CC(C)C)C(=O)N[C@H]1CC[C@@H]2CN(c3ccc(OC(F)(F)F)cc3)C[C@@H]21`: greater than 85%; for `CN[C@@H](CC(C)C)C(=O)N[C@@H]1CC[C@H]2CN(Cc3cccc(C(F)(F)F)c3)C[C@H]21`: 19.4%.
Regarding `CC(C)C[C@H](NS(C)(=O)=O)C(=O)N[C@@H]1CC[C@H]2CN(Cc3cccc(C(F)(F)F)c3)C[C@H]21`, the remaining at 0.5 h came out at 23.6%.
On the same count and under the same terms, the same measure for `CC(C)C[C@H](N)C(=O)N[C@@H]1CC[C@H]2CN(S(=O)(=O)c3cccc(C(F)(F)F)c3)C[C@H]21`: 45%.

System in the next data set: not listed separately
The data set can be described thus: Plasma clearance in rat at 5 umol/kg, iv and 30 umol/kg, po. The data set is classed as ADME, organism-based. Conditions: plasma.
`CC(C)C[C@H](N)C(=O)N[C@@H]1CC[C@H]2CN(S(=O)(=O)c3cccc(C(F)(F)F)c3)C[C@H]21` showed a clearance of 568 mL/min/kg.

System in another data set: not listed separately
The data set can be described thus: Half life in rat at 5 umol/kg, iv and 30 umol/kg, po. Format: ADME, organism-based. Conditions: in vivo.
On to `CC(C)C[C@H](N)C(=O)N[C@@H]1CC[C@H]2CN(S(=O)(=O)c3cccc(C(F)(F)F)c3)C[C@H]21`, for which the half-life was 30 min.

System in a further data set: not listed separately
The data set can be described thus: Volume of distribution at steady state in rat at 5 umol/kg, iv and 30 umol/kg, po. The data set is classed as ADME, organism-based. Particulars: in vivo, read-out: Vdss.
As to `CC(C)C[C@H](N)C(=O)N[C@@H]1CC[C@H]2CN(S(=O)(=O)c3cccc(C(F)(F)F)c3)C[C@H]21`, the Vd was found to be 15 L/kg.
